{
  "source": "patent US20240374616A1",
  "about": "“USE OF TERPENOIDS IN THE TREATMENT OF MASTOCYTOMA” (ARJIL BIOTECH HOLDING COMPANY LIMITED, priority 2021, published 2024)",
  "key": {"[1]": {"assay": "Cell Counting Kit-8 assay of cell viability on P815 cells", "type": "cell-based", "conditions": "mouse, P815 mastocytoma cells, read-out: Cell viability (%) Mean ± SD", "protocol": "Mouse mastocytoma cells purchased from the Bioresource Collection and Research Center (Hsinchu City, Taiwan) and were cultured with Dulbecco's modified Eagle's (DMEM) medium (Gibco, Carlsbad, California, USA) that was supplemented with 10% fetal bovine serum (Gibco, Carlsbad, California, USA), 100 U/ml penicillin, and 100 μg/ml streptomycin.\n(§1) 1×10^5 cells per well of P815 cells were pretreated with terpenoids for 18 h. 5 μL Cell Counting Kit-8 reagent was added to each well, incubating for 4 h followed by optical density determination at 450 nm by a microplate reader (Tecan Sunrise). The mean optical density (OD, absorbance) from four wells of the indicated group was used to calculate the percentage of cell viability as the formula as follows: [(ODexperiment-ODblank)/(ODcontrol-ODblank)]×100%, where ODexperiment is the absorbance of cells treated with […] terpenoid-treated cells, and ODblank is the absorbance of a well with medium only. ODcontrol is the absorbance of cells treated with 0.1% DMSO only.\nas §1, with “Mouse mastocytoma cells purchased from the Bioresource Collection and Research Center (Hsinchu City, Taiwan) and were cultured with Dulbecco's modified Eagle's (DMEM) medium (Gibco, Carlsbad, California, USA) that was supplemented with 10% fetal bovine serum (Gibco, Carlsbad, California, USA), 100 U/ml penicillin, and 100 μg/ml streptomycin. 1×10^5” for “1×10^5”, “terpenoids-treated” for “terpenoid-treated”"}, "RBL-2H3 cells": {"tested_on": "RBL-2H3 cells", "assay": "β-hexosaminidase release assay in RBL-2H3 cells", "type": "cell-based", "conditions": "under the safety dose, compared with DMSO, FIG. 1", "protocol": "β-hexosaminidase Release Assay\nRBL-2H3 cells were seeded into 24 well plate (0.5×10^5 cells/0.5 mL/well), and drug treatment was added every other day for 24 hours. On the third day, 500 μL of Anti-DNP-IgE (0.1 μg/mL) was added overnight. On the fourth day, add 160 μL DNP-BSA (0.1 μg/mL in Tyrode's buffer) to each well and react at 37° C. for 1 hour. For each well in 24 wells, 50 μL of cell supernatant was mixed with 50 μL of P-NAG (triplicates), and 96 well plates were reacted at 37° C. for 1 hour. Add 100 μL of stop buffer and measure the absorbance at 405 nm, which is the β-hexosaminidase data. For 24 well plates, add 300 μL of MTT reagent (0.5 mg/mL) to each well, react at 37° C. for 2 hours, remove the supernatant, add 300 μL of DMSO to each well, and measure the absorbance at 570 nm. The data were calculated by one-way ANOVA with Dunnett's test (* […], ** p<0.01, *** p<0.001, **** p<0.0001), and plotted with Graph pad.\nThe results from triplicate determinations are presented as the percentage of viable cells. Statistical analysis was performed using one-way ANOVA (Dunnett's multiple comparisons test). Results are presented as the mean ±SD from at least three independent experiments. Statistical significance is indicated (ns: no significance, ** p<0.01, *** p<0.001, **** p<0.0001, compared with DMSO)."}, "P815 mast cell tumor": {"tested_on": "P815 mast cell tumor", "assay": "H&E histopathological analysis of P815 tumor tissues", "type": "in vivo, mice", "conditions": "FIG. 11; 0.06 mg", "protocol": "Mice were sacrificed on day 30, and tumors were removed, fixed with 10% formalin, 5% formic acid, and embedded in paraffin. Briefly, tumor sections were stained with hematoxylin and eosin (H&E) and analyzed by microscopy. Tissue sections were dewaxed with Xylene, and then treated with ethanol (100%, 95%, 75%, 50%). Tissues were stained with Hematoxylin for 1 minute and Eosin for 5 minutes.\nThe mice were administrated 100 μL samples intravenously every 2 days and sacrificed on the 30th day for histopathological examinations."}},
  "data": [
    {"molecule": "C=C1C(=O)O[C@H]2/C=C(\\C)CC3C=C(CC/C=C(\\C)CC[C@H]12)C(=O)O3", "note": "(stereo partly drawn) [AR100-DS1, Ovatodiolide]", "values": [
      {"measurement": "viability at 18 h, 1 mg/mL", "setting": "[1]; 1 mg/mL", "result": "42.4 ± 1.84", "unit": "%"},
      {"measurement": "viability at 18 h, 2 mg/mL", "setting": "[1]; 2 mg/mL", "result": "39.5 ± 3.09", "unit": "%"},
      {"measurement": "viability at 18 h, 3 mg/mL", "setting": "[1]; 3 mg/mL", "result": "40.8 ± 1.25", "unit": "%"},
      {"measurement": "viability at 18 h, 4 mg/mL", "setting": "[1]; 4 mg/mL", "result": "43.3 ± 0.65", "unit": "%"},
      {"measurement": "viability at 18 h, 5 mg/mL", "setting": "[1]; 5 mg/mL", "result": "41.4 ± 1.81", "unit": "%"},
      {"measurement": "β-hexosaminidase release", "setting": "RBL-2H3 cells", "result": "significantly lower"}
    ]},
    {"molecule": "C=C(CC[C@@H](C(=O)O)[C@H]1CC[C@@]2(C)C3=CC[C@H]4C(C)(C)[C@@H](O)CC[C@]4(C)C3=CC[C@]12C)C(C)C", "note": "[AR101-DS4, Dehydroeburicoic Acid]", "values": [
      {"measurement": "H&E histological stain of tumor tissues", "setting": "P815 mast cell tumor", "result": "arrest the tumor cell proliferation and cause the tumor cell nucleus aggregation"},
      {"measurement": "viability at 18 h, 0.02 mg/mL", "setting": "[1]; 0.02 mg/mL", "result": "181 ± 30.4", "unit": "%"},
      {"measurement": "viability at 18 h, 0.04 mg/mL", "setting": "[1]; 0.04 mg/mL", "result": "69.3 ± 4.58", "unit": "%"},
      {"measurement": "viability at 18 h, 0.06 mg/mL", "setting": "[1]; 0.06 mg/mL", "result": "49.7 ± 2.62", "unit": "%"},
      {"measurement": "viability at 18 h, 0.08 mg/mL", "setting": "[1]; 0.08 mg/mL", "result": "54.3 ± 1.85", "unit": "%"},
      {"measurement": "viability at 18 h, 0.1 mg/mL", "setting": "[1]; 0.1 mg/mL", "result": "49.1 ± 2.52", "unit": "%"}
    ]}
  ]
}
